Test results from patent publication US4698354A, “4-methoxy-isophthalic acid derivative having a pharmacological activity in thromboembolic disorders” (Societa Italo-Brittanica L. Manetti-H. Roberts & Co., priority 1986, dated 1987).

Columns and labels:
[1] = system: platelet aggregation induced in PRP using ADP; assay: Blood platelet anti-aggregant activity on human volounteers (ADP-induced aggregation in PRP); assay type: in vivo; settings: 500 mg sole dose per os; for percent inhibition of the aggregation curve: ADP 2×10^-6 M
Method: On healthy human volounteers of both sexes aging from 31 to 53 the blood anti-aggregant activity was evaluated by per os treatment at a 500 mg sole dose, taking the blood samples before treatment and after 1-2-4-6 hours. The platelet aggregation was induced in PRP using ADP as aggregant agent at a concentration of 2×10^-6 M following the method illustrated in example 2. The platelet anti-aggregant activity reported in quantitative terms in the following table, was calculated as percent inhibition of the aggregation curve after treatment with respect to the […]

[2] = system: Blood platelet aggregation from ADP; assay: Blood platelet anti-aggregate activity in vitro, ADP-induced aggregation, rabbit PRP; assay type: cell-based; settings: Oryctolagus cuniculus, 10 min, 10 minutes incubation at 37° C., read-out: IC50 (50% decrease of maximum amplitude of aggregation curve)
Description: (§1) The compound object of the present invention has been tested to ascertain the acute toxicity, bio-disponibility and interference with the blood platelet function in vitro and in vivo by carrying out tests in all cases in comparison with another molecule, picotamide monohydrate, which is included in the same class of products, and the pharmacological activity of which is already known (see German patent 3113150).
(§2) Platelet aggregation was induced in rabbit "platelet rich plasma" (PRP) by employing as aggregant agents adenosine diphosphate (ADP) and arachidonic acid (AANa) after incubation at 37° C. for 10 minutes with the compounds under test. The activity is expressed as the concentration able to decrease by 50% (IC50) the maximum amplitude (AM) of the aggregation curve so obtained, with respect to the aggregation curve as obtained with control plasmas incubated only with buffers.
(§3) The results of the tests effected with ADP and AANa are hereinafter referred: […]

[3] = system: platelet aggregation induced with U46619; assay: Blood platelet anti-aggregant activity in vitro on human PRP, U46619; assay type: cell-based; settings: ten minutes incubation at 37° C., read-out: IC50 (50% decrease of maximum amplitude of aggregation curve)
Method: (§4) The blood platelet anti-aggregant activity of G619 was studied in comparison with picotamide on human platelet rich plasma (PRP), wherein the platelet aggregation was induced with ADP, collagen, AANa and U46619 after incubation at 37° C. for ten minutes with the compounds under test. The results, indicated as a concentration able to decrease by 50% (IC50) the maximum amplitude of the aggregation curve obtained with control plasma incubated only with the buffer, are the following: […]

[4] = Acute toxicity (DL50), mouse; settings: in vivo, sole administration, seven days observation
Description: as §1
(§5) The compound of the present invention was subjected to acute toxicity tests on two animal species and two administration routes. The animals which are treated per os or endovenously in a sole administration, have been held under observation for seven days after treatment by recording the symptomatology and the number of deaths. The results, referred in the following table, are indicated as the dose which produces the death of 50% of the treated animals (DL50) calculated by statistical method: […]

[5] = Acute toxicity (DL50), rat; settings: in vivo, sole administration, seven days observation
Description: as §1, §5

[6] = system: platelet aggregation induced with collagen; assay: Blood platelet anti-aggregant activity in vitro on human PRP, collagen; assay type: cell-based; settings: ten minutes incubation at 37° C., read-out: IC50 (50% decrease of maximum amplitude of aggregation curve)
Method: as §4

[7] = Per os absorbtion in rat, plasma levels; assay type: in vivo; settings: for concentration at 0.5 h: 1/2 h; for absorbtion, times higher than that of picotamide monohydrate: rat per os
Description: as §1
Per os absorbtion tests have been carried out in rat after a sole administration of 100 mg/Kg in gum acacia suspension. The determinations of the blood levels of the two substances at various times have been effected on plasma using a high pressure liquid phase chromotograph and indicated as γ/ml. The values referred hereinafter represent the average of 8 determinations: […]

[8] = system: Blood platelet aggregation from AANa; assay: Blood platelet anti-aggregate activity in vitro, arachidonic acid (AANa)-induced aggregation, rabbit PRP; assay type: cell-based; settings: Oryctolagus cuniculus, 10 min, 10 minutes incubation at 37° C., read-out: IC50 (50% decrease of maximum amplitude of aggregation curve)
Description: as §1, §2, §3

[9] = system: platelet aggregation induced with AANa; assay: Blood platelet anti-aggregant activity in vitro on human PRP, AANa; assay type: cell-based; settings: ten minutes incubation at 37° C., read-out: IC50 (50% decrease of maximum amplitude of aggregation curve)
Method: as §4

[10] = system: platelet aggregation induced with ADP; assay: Blood platelet anti-aggregant activity in vitro on human PRP, ADP; assay type: cell-based; settings: for IC50: Platelet, ADP, human PRP, ten minutes incubation at 37° C., read-out: IC50 (50% decrease of maximum amplitude of aggregation curve)
Method: as §4

[11] = system: platelet aggregation induced by arachidonic acid; assay: Blood platelet anti-aggregant activity in vivo (arachidonic acid-induced aggregation in PRP of treated rabbits); set-up: species or system New Zealand rabbits; settings: for ED50: Oryctolagus cuniculus, Platelet, 0.5 h, rabbit, gum acacia suspension, blood taken 30 minutes after treatment, arachidonic acid, read-out: ID50 (dose decreasing by 50% the maximum amplitude of the aggregation curve)
Description: as §1
New Zealand rabbits which had been held fasting for twelve hours with water ad libitum, were administered with G 619 and picotamide monohydrate at various dosages in a gum acacia suspension. To the control rabbits only gum acacia was administered. After 30 minutes from treatment the animals were anaesthetized with sodium pentothal (30 mg/Kg i.v.) and blood was taken from the carotid artery, rendered incoagulable with sodium citrate at 3,8% and centrifuged at 1400 rpm for 15 minutes in order to obtain the platelet rich plasma (PRP). On said PRP the platelet aggregation was induced by arachidonic acid and the corresponding aggregation curve was recorded using a Born aggregometer. The activity is indicated as the dose able to decrease by 50% (ID50) the maximum amplitude (AM) of the aggregation curve of plasma of treated animals with respect to that of plasma from control animals, the following results being obtained: […]

[12] = system: production of thromboxane B2 (TxB2); assay: Production of thromboxane B2 (TxB2) in human PRP after stimulation with collagen; assay type: cell-based; settings: collagen 1 μg/ml, TxB2 measured in ug/ml
Method: In order to investigate the mechanism of action of G619 the production of malondialdehyde (MDA) and thromboxane B2 (TxB2) after stimulation with collagen 1 μg/ml was measured on human PRP.

[13] = system: production of 6-keto-PGFla; assay: Production of 6-keto-PGFla in human PRP after stimulation with collagen; assay type: cell-based; settings: collagen 1 ug/ml
Method: The production of 6-keto-PGFla was also measured after stimulation of human PRP with collagen 1 ug/ml.

[14] = in vivo, po, rat, 100 mg/Kg per os, gum acacia suspension, average of 8 determinations, read-out: blood level (plasma)

SMILES | maximum activity (platelet anti-aggregant) ([1]; ADP) | percent inhibition of the aggregation curve ([1]; 1 h) | percent inhibition of the aggregation curve ([1]; 2 h) | percent inhibition of the aggregation curve ([1]; 4 h) | percent inhibition of the aggregation curve ([1]; 6 h) | IC50 [2] | IC50 [3] | LD50 at 168 h ([4]; iv) | LD50 at 168 h ([4]; po, os) | LD50 at 168 h ([5]; iv) | LD50 at 168 h ([5]; po, os) | IC50 [6] | concentration at 0.5 h [7, 14] | concentration at 1 h [7, 14] | concentration at 2 h [7, 14] | IC50 [8] | IC50 [9] | IC50 [10] | ED50 [11] | IC50 [12] | further results
COc1ccc(C(N)=O)cc1C(=O)NCc1cccnc1 [G 619, 3-carbamoyl(3'-picolyl)-4-methoxy-1-benzamide] | 53,8% | 38,2% | 53,8% | 43,4% | 24,2% | 125 µM | 9.2 µM | 400 mg/kg | > 3000 mg/kg | 450 mg/kg | > 3000 mg/kg | 11 µM | 26900 ng/mL | 20200 ng/mL | 9400 ng/mL | 26.9 µM | 4.2 µM | 56 µM | 25 mg/kg | 4.6 µM | time after treatment of maximum activity ([1]; ADP): two; concentration at 4 h ([7]; in vivo, po, rat, 100 mg/Kg per os, gum acacia suspension, 4 h, average of 8 determinations, read-out: blood level (plasma)): 2100 ng/mL; absorbtion, times higher than that of picotamide monohydrate ([7]; 1/2 hour): 8 times; absorbtion, times higher than that of picotamide monohydrate ([7]; 2 hours): 19 times; power of action, factor higher with respect to picotamide ([10]; platelet aggregations induced in human PRP (ADP, collagen, AANa, U46619)): 10 factor; activity, times higher than that of picotamide monohydrate ([11]; rabbit in vivo, ID50): about 3 times; activation at 1 µM ([13]; starting from concentrations of 10^-6 M, read-out: increase in the production of 6-keto-PGFla): 100 to 150%
COc1ccc(C(=O)NCc2cccnc2)cc1C(=O)NCc1cccnc1 [Picotamide monohydrate, N-N'-bis-(3-picolyl)-4-methoxy-isophthalamide monohydrate, reference compound] | 41,1% | 18,2% | 25,6% | 41,1% | 21,5% | 930 µM | 250 µM | 275 mg/kg | 3000 mg/kg | 190 mg/kg | 3000 mg/kg | 100 µM | 3400 ng/mL | 1200 ng/mL | 500 ng/mL | 79 µM | 89 µM | 820 µM | 78 mg/kg | 10 µM | effect on production of 6-keto-PGFla (in words) ([13]; 10^-6 M): hardly efficient
